Experimental data published in patent US11596620B2, “Formulations with reduced oxidation” (Genentech, Inc., priority 2013, dated 2023).
“Also recorded” adds a separate entry of the source.

Legend:
mAb1 [1] = assay: mAb1 light stress study (16 hours at 250 W/m^2), RP-HPLC; assay type: physicochemical, human; details: 16 hours of light at 250 W/m^2; for Light-induced Fab oxidation, effect in words / Light-induced Fc oxidation, effect in words: excipient 1 mM; for Fab oxidation increase over the control level (mAb1 Ref Mat): excipient 1 mM or none; for Light-induced Fc oxidation, effect in words: compared to no excipient
Method: (§1) The fragments were reduced with DTT, and then separated and identified via Liquid Chromatography-Mass Spectrometry (LC-MS). […] Comparison of area integrated under the oxidized and native peaks was used to quantify HC Fab and Fc oxidation. […] By using the papain digest RP-HPLC method in the present study it was possible to investigate Trp residue oxidation by quantifying HC Fab oxidation, and Met residue oxidation by quantifying HC Fc oxidation.
Antioxidants were added at 1 mM. Glass vials containing these formulations were exposed to 250 W/m^2 light in an Atlas SunTest CPS+ Xenon Test Instrument (Chicago, Ill.). Control vials were wrapped in aluminum foil and treated similarly. After light exposure, solutions were prepared for analysis by reverse-phase HPLC as described above.

[2] = Cyclic voltammetry (CV) screening assay, oxidation potential; assay type: physicochemical
Method: The oxidation/reduction characteristics of the compounds were investigated. Several compounds, including L-Trp and derivatives, were evaluated for the protection of Trp oxidation in proteins using cyclic voltammetry (CV) and rank ordered based on their oxidation potentials (Table 2). Specifically, the candidate antioxidants were dissolved in deionized water and then added to a 0.2 M lithium perchlorate electrolyte solution. […] Solutions were scanned from −0.10 V to +1.50 V at a scan rate of either 100 or 500 mV/sec. The analytical cell was purged for four minutes with nitrogen before scanning of each antioxidant solution. The input was a linear scan of the potential of a working electrode, and the output was measurement of the resulting current. […] Redox reactions were characterized by sharp increases or decreases in current (peaks). The potential at which an oxidation reaction occurred was referred to as the anodic peak potential (or oxidation potential), and the potential at which a reduction occurred was referred to as is the cathodic peak (or reduction) potential.

[3] = Photosensitivity screening assay (H2O2 by Amplex Ultra Red after light exposure); assay type: physicochemical; details: for H2O2 produced in comparison to L-Trp: 1 mM, four hours of light at 250 W/m^2, times more H2O2 than L-Trp
Method: As a screening tool, antioxidant candidates were exposed to light for four hours at 250 W/m^2 and the resulting H2O2 formation was quantified by the Amplexassay. Specifically, antioxidants were prepared to 1 mM in 20 mM histidine acetate buffer at pH 5.5. The 1 mM antioxidant solutions were aliquoted into glass vials (2 mL/glass vial) and exposed to four hours of light at 250 W/m^2 in an Atlas SunTest CPS+ Xenon Test Instrument (Chicago, Ill.). Total UV dose was 90 watt-hours/square meter and total visible dose was 0.22 million lux hours over the 4-hour period. Control vials were wrapped in aluminum foil and treated similarly. The amount of hydrogen peroxide generated after exposure to light was measured using the Amplex® Ultra Red Assay (Invitrogen, Carlsbad, Calif.) following the manufacturer's recommended procedure. On addition of horseradish peroxidase (HRP), the dye reacted 1:1 stoichiometrically with H2O2, resulting in the production of fluorescent oxidation product resorufin. In this study, fluorescence readings were obtained using a Spectra Max M2 Micro-plate Reader (Molecular Devices, Sunnyvale, Calif.) with excitation and emission set at 560 nm and 590 nm, respectively. Final H2O2 concentrations were determined using a standard curve ranging from 0 μm to 20 μm.

mAb1 [4] = assay: mAb1 AAPH stress study, RP-HPLC; assay type: physicochemical, human; details: for Fab (Trp residue) oxidation: mAb1 with AAPH for 24 hours at 40° C., antioxidants at 1 mM or none
Method: as §1
Antioxidants were added at 1 mM. […] After buffer exchange, each solution was prepared for analysis by reverse-phase HPLC as described above.

mAb1 [5] = assay: Light stress of mAb1 formulation (eight hours at 250 W/m^2), papain digest RP-HPLC; assay type: physicochemical, human
Method: L-tryptophan (L-Trp), an antioxidant used in protein formulations, has been recently shown to be photosensitive (Igarashi et al., Anal Sci 23(8):943-8 (2007)) and to have the ability to produce H2O2 upon light exposure. […] Control vials were wrapped in aluminum foil and treated similarly. After light exposure, solutions were prepared for analysis by reverse-phase HPLC. […] Following incubation, 900 μL of the solution was combined with 100 μL of 1 M dithiothreitol (DTT) and incubated for another thirty minutes at 37° C. Samples were then run on an Agilent, Inc. 1100/1200 HPLC system (Santa Clara, Calif.) equipped with UV detection at 280 nm in conjunction with a Varian, Inc. Pursuit 3 μm, 2 mm ID×250 mm diphenyl column (Palo Alto, Calif.). Mobile Phase A was 0.1% TFA in water. Mobile Phase B was 0.1% TFA in acetonitrile. The mobile phase gradient increased linearly from 34% B at 0 minutes to 43% B at 50.0 minutes, then to 95% B at 50.1 minutes. The gradient remained at 95% B until 60.1 minutes, and then decreased linearly from 95% B to 34% B between 60.1 and 60.2 minutes. The gradient remained at 34% B until the end of the cycle at 80.2 minutes. The column temperature was 65° C., total flow rate was 0.2 mL/min, and injection volume of each sample was 6 μL. Chromatograms were then integrated for quantification of oxidation.

[6] = anodic peak potential, glassy carbon working electrode, 0.2M lithium perchlorate
[7] = 1 mM in 20 mM histidine acetate pH 5.5, four hours of light at 250 W/m^2
[8] = cyclic voltammetry, 0.2 M lithium perchlorate

Row | SMILES | Oxidation Potential [2, 6] | (H2O2 produced by Compound)/(H2O2 produced by L-Trp) [3, 7] | H2O2 produced compared to L-Trp, in words [3, 7] | Oxidation potential relative to L-Trp, in words ([2]; cyclic voltammetry) | further results
1 | N[C@@H](Cc1c[nH]c2ccc(O)cc12)C(=O)O [5-Hydroxy-L-Trp, 5-hydroxy-L-tryptophan] | 0.565 V vs Ag/AgCl | 0.09 | about one tenth | – | Light-induced Fab oxidation, effect in words (mAb1 [1]): near control levels; Fab (Trp residue) oxidation (mAb1 [4]): about 2%
2 | Nc1ccccc1C(=O)C[C@H](N)C(=O)O [L-Kynurenine, L-kynurenine] | 1.040 V vs Ag/AgCl | 0.20 | about one fifth | higher oxidation potential than L-Trp | –
3 | Nc1ccc(O)cc1C(=O)O [5-Hydroxyanthranilic Acid] | – | 0.44 | half as much H2O2 | – | –
4 | COc1ccc2[nH]cc(CCNC(C)=O)c2c1 [Melatonin (N-Acetyl-5-Methoxytryptamine), N-Acetyl-5-Methoxytryptamine] | 0.730 V vs Ag/AgCl | 0.28 | less than a third | – | –
5 | O=C(O)c1ccccc1O [Salicylic Acid] | 1.080 V vs Ag/AgCl | – | – | higher oxidation potential than L-Trp | Fab oxidation increase over the control level (mAb1 Ref Mat) (mAb1 [1]): 8 fold; Light-induced Fc oxidation, effect in words (mAb1 [1]): more Fc oxidation; Oxidation Potential [2, 8]: 1.080 V vs Ag/AgCl; (H2O2 produced by Compound)/(H2O2 produced by L-Trp) ([3]; pH 5.5): 0.03; H2O2 produced compared to L-Trp, in words ([3]; pH 5.5): very little H2O2; AAPH-induced Fab oxidation, effect in words (mAb1 [4]; excipient 1 mM, AAPH 24 hours at 40° C.): almost no effect
6 | NC(=O)[C@@H](N)Cc1c[nH]c2ccccc12 [L-Trpamide, L-tryptophanamide] | 1.015 V vs Ag/AgCl | 0.43 | – | higher oxidation potential than L-Trp | Fab oxidation increase over the control level (mAb1 Ref Mat) (mAb1 [1]): 8 fold; Light-induced Fc oxidation, effect in words (mAb1 [1]): more Fc oxidation
7 | O=C(O)c1cc(O)ccc1O [5-Hydroxysalicylic Acid] | – | 0.84 | behaved like L-Trp | – | –
8 | NC(Cc1c[nH]c2ccc([N+](=O)[O-])cc12)C(=O)O (racemic) [5-nitro-DL-tryptophan] | 1.055 V vs Ag/AgCl | – | – | higher oxidation potential than L-Trp | –
9 | NCCc1c[nH]c2ccc(O)cc12 [Serotonin (5-Hydroxytryptamine), 5-Hydroxytryptamine] | 0.600 V vs Ag/AgCl | 0.03 | very little H2O2 | – | Light-induced Fab oxidation, effect in words (mAb1 [1]): near control levels; Fab (Trp residue) oxidation (mAb1 [4]): about 2%
10 | Nc1ccccc1C(=O)O [Anthranilic Acid] | – | 2.50 | twice as much H2O2 | – | –
11 | N[C@@H](Cc1c[nH]c2ccc(F)cc12)C(=O)O [5-Fluoro-L-Trp, 5-fluoro-L-tryptophan] | 0.965 V vs Ag/AgCl | 0.71 | – | higher oxidation potential than L-Trp | –
12 | O=C(O)c1cc2cccc(O)c2[nH]1 [7-Hydroxyindole-2-Carboxylic Acid] | – | 0.15 | – | – | –
13 | O=C(O)Cc1c[nH]c2ccc(O)cc12 [5-Hydroxyindole-3-Acetic Acid] | 0.535 V vs Ag/AgCl | 0.11 | – | – | –
14 | Cc1ncc(CO)c(CO)c1O [Pyridoxine] | – | 5.16 | – | – | H2O2 produced in comparison to L-Trp [3]: 5 times
15 | Oc1ccc2[nH]ccc2c1 [5-Hydroxyindole] | 0.580 V vs Ag/AgCl | −0.08 | – | – | Light-induced Fab oxidation, effect in words (mAb1 [1]): near control levels; Fab (Trp residue) oxidation (mAb1 [4]): about 2%
16 | CSCC[C@H](N)C(=O)O [L-Met, L-methionine] | – | – | – | – | Fab oxidation, effect in words (mAb1 [5]; 10, 25, 50, and 100 mM L-Met added to formulation containing 1 mM L-Trp, eight hours of light): appeared to reduce Fab oxidation slightly; Fc oxidation, effect in words (mAb1 [5]; eight hours of light at 250 W/m^2, no excipient, or 10, 25, 50 and 100 mM L-Met added to 1 mM L-Trp): reduced the amount of Fc oxidation
17 | CC(=O)N[C@@H](Cc1c[nH]c2ccccc12)C(=O)O [N-Acetyl-L-Trp, N-acetyl-L-tryptophan] | 0.875 V vs Ag/AgCl | 0.31 | – | – | –
18 | COc1ccc2[nH]cc(CC(N)C(=O)O)c2c1 (racemic) [5-Methoxy-DL-Trp, 5-methoxy-DL-tryptophan] | 0.890 V vs Ag/AgCl | 1.05 | – | – | Oxidation Potential [2, 8]: 0.890 V vs Ag/AgCl
19 | Oc1cccc2[nH]ccc12 [4-Hydroxyindole] | – | 0.00 | – | – | –
20 | Cc1c(C)c2c(c(C)c1O)CCC(C)(C(=O)O)O2 (stereo not drawn) [Trolox] | – | 122.75 | – | – | H2O2 produced in comparison to L-Trp [3]: 123 times
21 | c1ccc2[nH]ccc2c1 [Indole] | – | 0.95 | behaved similarly to L-Trp | significantly lower oxidation potential than L-Trp | –
22 | Oc1cccc2cc[nH]c12 [7-Hydroxyindole] | – | −0.03 | – | – | Light-induced Fab oxidation, effect in words (mAb1 [1]): near control levels; Fab (Trp residue) oxidation (mAb1 [4]): about 2%
23 | NCCc1c[nH]c2ccccc12 [Tryptamine] | 1.010 V vs Ag/AgCl | 0.53 | about half as much H2O2 | higher oxidation potential than L-Trp | H2O2 produced compared to L-Trp, in words ([3]; 1 mM in 20 mM histidine acetate pH 5.5, four hours of light at 250 W/m^2, listed as tryptamine): two times less
24 | O=C(O)Cc1c[nH]c2ccccc12 [Indole-3-Acetic Acid] | 0.948 V vs Ag/AgCl | 2.40 | twice as much H2O2; also recorded: two times more H2O2 | higher oxidation potential than L-Trp | –
25 | Nc1ccc2[nH]cc(CC(N)C(=O)O)c2c1 (racemic) [5-Amino-DL-Trp, 5-amino-DL-tryptophan] | 0.410 V vs Ag/AgCl | 0.29 | – | – | Oxidation Potential [2, 8]: 0.410 V vs Ag/AgCl
